Source: US12528814B2, “Bifunctional degraders of interleukin-1 receptor-associated kinases and therapeutic use thereof” (NURIX THERAPEUTICS, INC., priority 2020, dated 2026)
Where two headings read alike, the source gives them in different places.

Columns and labels:
IRAK4 [1] = biological target: T1, IRAK4 (Homo sapiens (Human), UniProt Q9NWZ3); test: IRAK4 Biochemical HTRF Kinase Assay
Method in brief: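 HTRF KinEASE STK S1 format measuring IRAK4 phosphorylation of biotinylated peptide; reaction solution of 5 μM STK-S1, 10 mM ATP, 10 mM MgCl2 added (stock, to 10 μl final), 90 min at ambient temperature, detection 60 min. IC50 from sixteen-point duplicate curves by non-linear regression.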
Target sequence in this assay (Q9NWZ3 whole entry, species assumed): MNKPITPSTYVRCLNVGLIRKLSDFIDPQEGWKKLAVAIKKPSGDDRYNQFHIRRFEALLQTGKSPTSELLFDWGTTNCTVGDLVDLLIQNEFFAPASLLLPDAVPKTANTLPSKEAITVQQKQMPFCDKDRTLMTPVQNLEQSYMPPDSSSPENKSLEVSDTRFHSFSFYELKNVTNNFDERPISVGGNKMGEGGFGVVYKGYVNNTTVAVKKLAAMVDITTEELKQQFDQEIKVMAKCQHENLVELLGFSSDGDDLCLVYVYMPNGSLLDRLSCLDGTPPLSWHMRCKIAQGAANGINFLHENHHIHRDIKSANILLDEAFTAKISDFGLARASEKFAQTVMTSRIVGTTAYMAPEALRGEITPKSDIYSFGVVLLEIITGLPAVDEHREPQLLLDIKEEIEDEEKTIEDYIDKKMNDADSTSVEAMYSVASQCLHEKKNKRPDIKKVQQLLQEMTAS

IRAK4 [2] = biological target: T1, IRAK4; test: Western Assay for IRAK4 Degradation; type: cell-based; details: wild-type Jurkat cells, 4 hrs; approximate
Method: DMSO was stamped into wells A12-H12 at 500 nL/well (NC, Negative Control, maximum signal). […] Following incubation, plates were centrifuged for 5 min at 1600 rpm. […] Cells were lysed overnight at −20° C. Plates were centrifuged for 5 min at 1600 rpm and lysate supernatants were transferred to storage plates. […] Samples were separated by running gels at constant 200 V in NuPAGE MES SDS Running Buffer. Following electrophoresis, proteins were transferred to nitrocellulose membranes using an iBlot Gel Transfer Device and iBlot Gel Transfer Stacks (Thermo cat. no. IB21001 and IB301001) and transfer method PO (20V 1 min, 23V 4 min, 25V 2 min). Membranes were blocked for 1 hr in 5% milk solution (TBS (0.2% Tween-20)).
Following blocking, membranes were incubated with primary antibody overnight at 4° C. with gentle shaking. […] Blots were washed 3× in TBS (0.2% Tween-20), 5-10 min per wash. Following washes, blots were incubated in secondary HRP-conjugated antibody (Promega anti-Rabbit IgG (H+L) HRP, cat. no. W4011), 1:5000 in 5% milk solution (TBS (0.2% Tween-20)), for 1 hr at room temperature with gentle shaking. Blots were washed 3× in TBS (0.2% Tween-20), 5-10 min per wash. Blots were incubated with 1:1 mix of ECL reagents 1 & 2 (Amersham ECL Western Blotting Detection Reagent, cat. no. RPN2106) for 2-3 min at room temperature. Bands were visualized using a Protein Simple imager. […] The data was analyzed using Alpha View software. The densitometric reading for each sample band was normalized to that of the corresponding actin band per lane.
Target sequence in this assay (Q9NWZ3 whole entry): as the sequence (Q9NWZ3 whole entry, species assumed) above

IRAK4 [3] = biological target: T1, IRAK4; test: IRAK4 Degradation HiBiT Assay; details: for Dmax: Jurkat
Target sequence in this assay (Q9NWZ3 whole entry): as the sequence (Q9NWZ3 whole entry, species assumed) above

[4] = Table 2, CRBN-targeting compounds, read-out: IRAK4 biochemical IC50
[5] = Table 4, read-out: IRAK4 HTRF biochemical: IC50
[6] = Table 5, multiple runs, read-out: IRAK4 HTRF biochemical: IC50
[7] = read-out: Cellular IRAK4 HiBiT: Dmax, Table 4, HiBiT-tagged Jurkat cells, 4 hrs
[8] = read-out: Cellular IRAK4 HiBiT: Dmax, Table 5, multiple runs, HiBiT-tagged Jurkat cells, 4 hrs
[9] = read-out: IRAK4 HiBit Dmax, C-terminal HiBiT-tagged Jurkat cells, 4 hrs, Tables 2-3
[10] = read-out: Cellular IRAK4 HiBiT: DC50, Table 4, HiBiT-tagged Jurkat cells, 4 hrs
[11] = read-out: Cellular IRAK4 HiBiT: DC50, Table 5, multiple runs, HiBiT-tagged Jurkat cells, 4 hrs
[12] = read-out: IRAK4 HiBit DC50, C-terminal HiBiT-tagged Jurkat cells, 4 hrs, Tables 2-3
[13] = Table 3, VHL-targeting compounds, read-out: IRAK4 biochemical IC50

SMILES | IC50 (IRAK4 [1]; [4]) [nM] | IC50 (IRAK4 [1]; [5]) [nM] | IC50 (IRAK4 [1]; [6]) [nM] | DC50 (IRAK4 [2]) [nM] | Dmax (IRAK4 [2]) [%] | Dmax (IRAK4 [3]; [7]) [%] | Dmax (IRAK4 [3]; [8]) [%] | Dmax (IRAK4 [3]; [9]) [%] | DC50 (IRAK4 [3]; [10]) [nM] | DC50 (IRAK4 [3]; [11]) [nM] | DC50 (IRAK4 [3]; [12]) [nM] | IC50 (IRAK4 [1]; [13]) [nM]
Cc1ncsc1-c1ccc(CNC(=O)[C@@H]2C[C@@H](O)CN2C(=O)[C@@H](NC(=O)C2(F)CC2)C(C)(C)C)c(OCCOCCC(=O)N2CCN(c3nnc(-c4cnc(-c5ccc6cc(C#N)cnn56)cc4NC(C)C)s3)CC2)c1 [Example 47, (2S,4R)—N-(2-(2-(3-(4-(5-(6-(3-cyanopyrrolo[1,2-b]pyridazin-7-yl)-4-(isopropylamino)pyridin-3-yl)-1,3,4-thiadiazol-2-yl)piperazin-1-yl)-3-oxopropoxy)ethoxy)-4-(4-methylthiazol-5-yl)benzyl)-1-((S)-2-(1-fluorocyclopropane-1-carboxamido)-3,3-dimethylbutanoyl)-4-hydroxypyrrolidine-2-carboxamide] |  | 7.3 | 5.8 | 89 | 99 | 118 | 118 | 118 | 144 | 144 | 144 | 7.3
Cc1ncsc1-c1ccc(CNC(=O)[C@@H]2C[C@@H](O)CN2C(=O)[C@@H](NC(=O)CCCC(=O)N2CCN(c3nnc(-c4cnc(-c5ccc6cc(C#N)cnn56)cc4NC(C)C)s3)CC2)C(C)(C)C)cc1 [Example 35, (2S,4R)-1-((S)-2-(5-(4-(5-(6-(3-cyanopyrrolo[1,2-b]pyridazin-7-yl)-4-(isopropylamino)pyridin-3-yl)-1,3,4-thiadiazol-2-yl)piperazin-1-yl)-5-oxopentanamido)-3,3-dimethylbutanoyl)-4-hydroxy-N-(4-(4-methylthiazol-5-yl)benzyl)pyrrolidine-2-carboxamide] |  | 5.2 | 5.2 | 200 | 86 | 100 | 100 | 100 | 590 | 235 | 590 | 5.2
CC(C)Nc1cc(-c2ccc3cc(C#N)cnn23)ncc1-c1nnc(N2CCN(C(=O)C3CCN(CC4CCN(c5ccc(-c6nn(C7CCC(=O)NC7=O)c(=O)n6C)cc5)CC4)CC3)CC2)s1 (stereo not drawn) [Example 24, 7-(5-(5-(4-(1-((1-(4-(1-(2,6-dioxopiperidin-3-yl)-4-methyl-5-oxo-4,5-dihydro-1H-1,2,4-triazol-3-yl)phenyl)piperidin-4-yl)methyl)piperidine-4-carbonyl)piperazin-1-yl)-1,3,4-thiadiazol-2-yl)-4-(isopropylamino)pyridin-2-yl)pyrrolo[1,2-b]pyridazine-3-carbonitrile] | 0.6 | 0.6 | 0.6 | 200 | 90 | 102 | 112 | 102 | 327 | 310 | 327 | 

Stronger by DC50 (IRAK4 [2]), values ahead:

IC50 (IRAK4 [1]; [4]) [nM] | IC50 (IRAK4 [1]; [5]) [nM] | IC50 (IRAK4 [1]; [6]) [nM] | DC50 (IRAK4 [2]) [nM] | Dmax (IRAK4 [2]) [%] | Dmax (IRAK4 [3]; [7]) [%] | Dmax (IRAK4 [3]; [8]) [%] | Dmax (IRAK4 [3]; [9]) [%] | DC50 (IRAK4 [3]; [10]) [nM] | DC50 (IRAK4 [3]; [11]) [nM] | DC50 (IRAK4 [3]; [12]) [nM] | IC50 (IRAK4 [1]; [13]) [nM] | SMILES
0.5 | 0.5 | 0.8 | 14 | 87 | 101 | 100 | 101 | 25.6 | 27 | 26 |  | CC(C)Nc1cc(-c2ccc3cc(C#N)cnn23)ncc1-c1nnc(N2CCN(C(=O)C3CCN(Cc4ccc5c(c4)C(=O)N(C4CCC(=O)NC4=O)C5=O)CC3)CC2)s1 (stereo not drawn) [Example 13, 7-(5-(5-(4-(1-((2-(2,6-dioxopiperidin-3-yl)-1,3-dioxoisoindolin-5-yl)methyl)piperidine-4-carbonyl)piperazin-1-yl)-1,3,4-thiadiazol-2-yl)-4-(isopropylamino)pyridin-2-yl)pyrrolo[1,2-b]pyridazine-3-carbonitrile]
1.2 |  |  | 1 | 54 |  |  | 88 |  |  | 26 |  | NC(=O)c1nn(-c2ccc(C(=O)NCCOCCOCCNc3cccc4c3C(=O)N(C3CCC(=O)NC3=O)C4=O)cc2)cc1NC(=O)c1coc(-c2ccnc(NCC(F)(F)F)c2)n1 (stereo not drawn) [Comparative Compound a2, reference compound]
 |  |  | 70 | 86 |  |  | 95 |  |  | 204 | 2.3 | CC[C@@H]1[C@H](F)C(=O)N[C@@H]1COc1ncc(C#CCN2CCC3(CC2)CCN(c2ncc(C(=O)N[C@H](C(=O)N4C[C@H](O)C[C@H]4C(=O)NCc4ccc(-c5scnc5C)cc4)C(C)(C)C)cn2)CC3)c2cc(C(N)=O)c(OC)cc12 [Comparative b1, reference compound]
